Measurements from US11464770B2, “Anticancer pharmaceutical composition” (NATIONAL CANCER CENTER, priority 2016, dated 2022).
“Also recorded” adds a separate entry of the source.

Assay: IV and IP single toxicity test in mice
Type: in vivo
Settings: for Percentage (dead subjects), single toxicity evaluation: Mouse
[1] = IV and IP single toxicity tests at 40 mpk, 40 mg/kg

## CC(=O)c1c([S+]([O-])Cc2ccccc2)nc2c(Br)ccc(Cl)c2c1O (stereo not shown) [Compound 4]
[1]
  Dead subjects: No dead subjects were observed
  General symptoms (feed intake, drinking water intake): Feeding and drinking water intakes were good, and no other abnormal symptoms were observed
  Weight changes: no significant weight changes; also recorded: a weight gain was observed, but weight gain was slightly reduced in some subjects
Female, IP 40 mg/kg
  Percentage (dead subjects), single toxicity evaluation: 0 (0/2)
Female, IV 40 mg/kg
  Percentage (dead subjects), single toxicity evaluation: 0 (0/2)
Male, IP 40 mg/kg
  Percentage (dead subjects), single toxicity evaluation: 0 (0/2)
Male, IV 40 mg/kg
  Percentage (dead subjects), single toxicity evaluation: 0 (0/2)
